Columns and labels:
Format in all cases: cell-based, human
[1] = test system: A549; assay: SRB colorimetric cytotoxicity assay, A549; conditions: lung carcinoma (NSCLC)
Description: (§1) The aim of this assay is to evaluate the in vitro cytostatic (ability to delay or arrest tumor cell growth) or cytotoxic (ability to kill tumor cells) activity of the samples being tested.
(§2) A colorimetric assay, using sulforhodamine B (SRB) reaction has been adapted to provide a quantitative measurement of cell growth and viability (following the technique described by V. Vichai and K. Kirtikara (2006) Nature Protoc. 1, 1112-1116.)
(§3) This form of assay employs 96-well cell culture microplates. All the cell lines used in this study were obtained from the American Type Culture Collection (ATCC), unless otherwise indicated, and derive from different types of human cancer.
(§4) Cells were maintained in Dulbecco's Modified Eagle Medium (DMEM) (for A549, HT-29 and MDA-MB-231) or RPMI (for PSN-1) supplemented with 10% Fetal Bovine Serum (FBS), 2 mM L-glutamine, 100 U/mL penicillin and 100 U/mL streptomycin at 37° C., 5% CO2 and 98% humidity. For the experiments, cells were harvested from subconfluent cultures using trypsinization and resuspended in fresh medium before counting and plating.
(§5) Cells were seeded in 96 well microtiter plates, at 5×10^3 cells per well in aliquots of 150 μL, and allowed to attach to the plate surface for 18 hours (overnight) in drug free medium. After that, one control (untreated) plate of each cell line was fixed (as described below) and used for time zero reference value. […] After 72 hours treatment, the antitumor effect was measured by using the SRB methodology: Briefly, cells were washed twice with PBS, fixed for 15 min in 1% glutaraldehyde solution at room temperature, rinsed twice in PBS, and stained in 0.4% SRB solution for 30 min at room temperature. Cells were then rinsed several times with 1% acetic acid solution and air-dried at room temperature. SRB was then extracted in 10 mM trizma base solution and the absorbance measured in an automated spectrophotometric plate reader at 490 nm. Effects on cell growth and survival were estimated by applying the NCI algorithm (Boyd M R and Pauli K D. Drug Dev Res. 1995, 34, 91-104).
(§6) Using the mean±SD of triplicates, a dose-response curve was automatically generated using nonlinear regression analysis to a 4-parameter logistic curve. Three reference parameters were calculated (NCI algorithm) by automatic interpolation: GI50=compound concentration that produces 50% cell growth inhibition, as compared to control cultures; TGI=total cell growth inhibition (cytostatic effect), as compared to control cultures, and LC50=compound concentration that produces 50% net cell killing (cytotoxic effect).

[2] = test system: MDA-MB-231; assay: SRB colorimetric cytotoxicity assay, MDA-MB-231; conditions: breast adenocarcinoma
Description: as §1, §2, §3, §4, §5, §6

[3] = test system: PSN-1; assay: SRB colorimetric cytotoxicity assay, PSN-1; conditions: pancreatic adenocarcinoma
Description: as §1, §2, §3, §4, §5, §6

[4] = test system: HT29; assay: SRB colorimetric cytotoxicity assay, HT29; conditions: colorectal adenocarcinoma
Description: as §1, §2, §3, §4, §5, §6

[5] = Homo sapiens, A549, 72 h, 72 hours treatment
[6] = Homo sapiens, MDA-MB-231, 72 h, 72 hours treatment
[7] = Homo sapiens, PSN1, 72 h, 72 hours treatment
[8] = Homo sapiens, HT-29, 72 h, 72 hours treatment

Row | SMILES | GI50 [1, 5] [nM] | GI50 [2, 6] [nM] | GI50 [3, 7] [nM] | GI50 [4, 8] [nM] | other results
1 | CCC[C@@H](NC(=O)[C@@]1(C)CSC(/C(C)=N/O)=N1)c1cc(OC)cc(=O)o1 [Compound 135] | 2460 | 2330 | 1260 | 1260 | 
2 | C#CCO/N=C(\C)C1=N[C@](C)(C(=O)N[C@H](CCC)c2cc(OC)cc(=O)o2)CS1 [Compound 94] | 35.8 | 35.8 | 35.8 | 22.6 | 
3 | C#CCOc1cc([C@@H](CCC)NC(=O)[C@]2(C)CSC(C(C)(OCC)OCC)=N2)oc(=O)c1 [Compound 51] | 344 | 323 | 366 | 215 | 
4 | C#CCOc1cc([C@@H](CCC)NC(=O)[C@]2(C)CSC(C(C)=O)=N2)oc(=O)c1 [Compound 64] | 99.9 | 53.8 | 71.7 | 61.5 | 
5 | C#CCOc1cc([C@@H](CCC)NC(=O)[C@]2(C)CSC(/C(C)=N/O)=N2)oc(=O)c1 [Compound 75] | 1.01 | 1.38 | 1.18 | 0.962 | 
6 | CCC[C@@H](NC(=O)[C@]1(C)CSC(/C(C)=N/OCCCS)=N1)c1cc(OC)cc(=O)o1 [Compound 151] | 856 | 1340 | 1210 | 505 | 
7 | CCC[C@@H](NC(=O)[C@]1(C)CSC(/C(C)=N/O)=N1)c1cc(N(CC)CC)cc(=O)o1 [Compound 77] | 2150 | 1960 | 2370 | 1180 | 
8 | C=CCOc1cc([C@@H](CCC)NC(=O)[C@]2(C)CSC(C(C)=NOCCCN3CCN(C)CC3)=N2)oc(=O)c1 [Compound 163] | 16.1 | 16.6 | 16.4 | 15.6 | 
9 | C=CCOc1cc([C@@H](CCC)NC(=O)[C@]2(C)CSC(C(C)=NOCCCCN3CCOCC3)=N2)oc(=O)c1 [Compound 161] | 4.96 | 6.49 | 5.13 | 5.47 | 
10 | C=CCOc1cc([C@@H](CCC)NC(=O)[C@]2(C)CSC(/C(C)=N/OP(=O)(OCc3ccccc3)OCc3ccccc3)=N2)oc(=O)c1 [Compound 172] | 80.9 | 108 | 100 | 56.9 | 
11 | C#CCOc1cc([C@@H](CCC)NC(=O)[C@]2(C)CSC(C(C)=NO)=N2)oc(=O)c1CC#C [Compound 141] | 225 | 248 | 338 | 178 | 
12 | COc1cc([C@@H](CCC(F)(F)F)NC(=O)[C@]2(C)CSC(/C(C)=N/O)=N2)oc(=O)c1 [Compound 140] | 666 | 459 | 643 | 344 | 
13 | CCC[C@@H](NC(=O)[C@]1(C)CSC(/C(C)=N\O)=N1)c1cc(OCC2CC2)cc(=O)o1 [Compound 76a] | 3.8 | 4.51 | 4.51 | 4.27 | 
14 | CCC[C@@H](NC(=O)[C@]1(C)CSC(/C(C)=N/O)=N1)c1cc(O)cc(=O)o1 [Compound 88] | 20400 | 21800 | 18800 | 11400 | 
15 | CCC[C@@H](NC(=O)[C@]1(C)CSC(/C(C)=N/O)=N1)c1cc(OCCOCCOCCOCC)cc(=O)o1 [Compound 87] | 5690 | 6820 | 7010 | 5500 | 
16 | C#CCOc1cc([C@@H](CCC)NC(=O)[C@]2(C)CSC(/C(C)=N/OCCCNC(=O)OC(C)(C)C)=N2)oc(=O)c1 [Compound 155] | 37.4 | 74.8 | 73 | 40.9 | 
17 | C=CCOc1cc([C@@H](CCC)NC(=O)[C@]2(C)CSC(/C(C)=N/O[C@H]3O[C@H](COC(C)=O)[C@@H](OC(C)=O)[C@H](OC(C)=O)[C@H]3OC(C)=O)=N2)oc(=O)c1 [Compound 107] | 52.9 | 78.6 | 61 | 52.9 | 
18 | CCC[C@@H](NC(=O)[C@]1(C)CSC(/C(C)=N/O)=N1)c1cc(OCC)cc(=O)o1 [Compound 70] | 14.4 | 23.8 | 14.9 | 14.9 | 
19 | CCC[C@@H](NC(=O)[C@]1(C)COC(/C(C)=N/O)=N1)c1cc(OC)cc(=O)o1 [Compound 106] | 1010 | 876 | 1560 | 712 | 
20 | C=CCOc1cc([C@@H](CCC)NC(=O)[C@]2(C)CSC(/C(C)=N/OCCCNC(=O)OC(C)(C)C)=N2)oc(=O)c1 [Compound 152] | 19.5 | 26.6 | 21.3 | 19.5 | 
21 | CCC[C@@H](NC(=O)[C@@]1(C)CSC(C(C)(OCC)OCC)=N1)c1cc(OCC2CC2)cc(=O)o1 [Compound 131] | 208 | 333 | 312 | 196 | 
22 | CCC[C@@H](NC(=O)[C@]1(C)CSC(C(C)=O)=N1)c1cccc(=O)o1 [Compound 127] | > 29700 | 8620 | 18700 | 14000 | 
23 | C=CCOc1cc([C@@H](CCC)NC(=O)[C@@]2(C)CSC(C(C)=O)=N2)oc(=O)c1 [Compound 133] | 9430 | 3820 | 5610 | 4590 | 
24 | CCCCCCCCCCCCCCCCCOc1cc([C@@H](CCC)NC(=O)[C@]2(C)CSC(C(C)=O)=N2)oc(=O)c1 [Compound 62] | 1610 | 1690 | 1640 | 1100 | 
25 | C=CCOc1cc([C@@H](CCC)NC(=O)[C@]2(C)CSC(/C(C)=N/OCCCN)=N2)oc(=O)c1 (stereo in doubt) [Compound 154] |  |  |  |  | GI50 ([1]; 72 hours treatment): 4.79 nM; GI50 ([2]; 72 hours treatment): 6.79 nM; GI50 ([3]; 72 hours treatment): 7.78 nM; GI50 ([4]; 72 hours treatment): 5.59 nM
26 | CCC[C@@H](NC(=O)[C@]1(C)CSC(/C(C)=N/O)=N1)c1cc(OCC2CC2)cc(=O)o1 [Compound 76] | 3.56 | 3.8 | 3.08 | 3.8 | 
27 | C=CCOc1cc([C@@H](CCC)NC(=O)[C@]2(C)CSC(C(C)N)=N2)oc(=O)c1 (some centres unmarked) [Compound 117] | 3020 | 4650 | 4880 | 3490 | 
28 | CCC[C@@H](NC(=O)[C@]1(C)CSC(/C(C)=N/OCCCCO[Si](C)(C)C(C)(C)C)=N1)c1cc(OCC2CC2)cc(=O)o1 [Compound 148] |  |  |  |  | GI50 ([1]; Homo sapiens, A549, 72 hours treatment): 263 nM; GI50 ([2]; Homo sapiens, MDA-MB-231, 72 hours treatment): 247 nM; GI50 ([3]; Homo sapiens, PSN1, 72 hours treatment): 296 nM; GI50 ([4]; Homo sapiens, HT-29, 72 hours treatment): 59.2 nM
29 | CCCCCCCCCCCCCCCCCOc1cc([C@@H](CCC)NC(=O)[C@]2(C)CSC(/C(C)=N/O)=N2)oc(=O)c1 [Compound 73] | 380 | 330 | 347 | 396 | 
